The values below are quoted from earlier work in patent US10647856B2, “Mold resistant formable cork” (THE BOEING COMPANY, priority 2016, dated 2020).

Values after ≈ are worked out from the molar mass of the structure shown.

In the case of `O=[N+]([O-])c1ccc(O)cc1` [para-nitrophenol], the water solubility is 16 mg/mL (≈ 115 mM).
